Results published in ChEMBL document CHEMBL4007415, “Thieno[3,2-b]pyrrole-5-carboxamides as New Reversible Inhibitors of Histone Lysine Demethylase KDM1A/LSD1. Part 1: High-Throughput Screening and Preliminary Exploration” (J Med Chem, 2017).
The source made the active and inactive calls. The rule behind the calls is not given here.

Columns and labels:
[1] = biological target: T1, LSD1/CoREST complex (Homo sapiens, UniProt O60341)
Description: Inhibition of recombinant human KDM1A/CoREST complex expressed in Escherichia coli using biotinylated H3K4me1 peptide as substrate preincubated for 20 mins measured after 1 hr by TR-FRET assay

[2] = system: THP-1; test: Induction of apoptosis in human THP1 cells at 0.5 uM after 72 hrs by Annexin V-propidium iodide staining based flow cytometry; type: functional, cell-based
[3] = biological target: T2, Amine oxidase [flavin-containing] A (Homo sapiens, UniProt P21397)
T2 sequence (P21397 whole entry): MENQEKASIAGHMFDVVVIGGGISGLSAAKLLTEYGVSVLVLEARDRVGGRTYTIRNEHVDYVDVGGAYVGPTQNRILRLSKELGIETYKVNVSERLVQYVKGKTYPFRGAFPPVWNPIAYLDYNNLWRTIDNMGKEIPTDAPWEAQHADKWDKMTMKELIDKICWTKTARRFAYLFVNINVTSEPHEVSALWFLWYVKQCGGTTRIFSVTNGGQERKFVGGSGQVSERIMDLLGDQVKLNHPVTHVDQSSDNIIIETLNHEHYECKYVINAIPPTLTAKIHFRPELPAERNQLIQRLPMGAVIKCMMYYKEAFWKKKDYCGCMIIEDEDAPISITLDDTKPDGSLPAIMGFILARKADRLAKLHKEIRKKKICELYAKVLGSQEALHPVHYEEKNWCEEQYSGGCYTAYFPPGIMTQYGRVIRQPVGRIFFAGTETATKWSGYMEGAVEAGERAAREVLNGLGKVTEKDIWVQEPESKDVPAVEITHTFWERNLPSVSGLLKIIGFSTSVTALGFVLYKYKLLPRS
Description: Inhibition of recombinant human MAOA incubated for 15 mins measured after 30 mins by luminescence-Glo assay

[4] = biological target: T3, Lysine-specific histone demethylase 2 (Homo sapiens, UniProt Q8NB78)
T3 sequence (Q8NB78 whole entry): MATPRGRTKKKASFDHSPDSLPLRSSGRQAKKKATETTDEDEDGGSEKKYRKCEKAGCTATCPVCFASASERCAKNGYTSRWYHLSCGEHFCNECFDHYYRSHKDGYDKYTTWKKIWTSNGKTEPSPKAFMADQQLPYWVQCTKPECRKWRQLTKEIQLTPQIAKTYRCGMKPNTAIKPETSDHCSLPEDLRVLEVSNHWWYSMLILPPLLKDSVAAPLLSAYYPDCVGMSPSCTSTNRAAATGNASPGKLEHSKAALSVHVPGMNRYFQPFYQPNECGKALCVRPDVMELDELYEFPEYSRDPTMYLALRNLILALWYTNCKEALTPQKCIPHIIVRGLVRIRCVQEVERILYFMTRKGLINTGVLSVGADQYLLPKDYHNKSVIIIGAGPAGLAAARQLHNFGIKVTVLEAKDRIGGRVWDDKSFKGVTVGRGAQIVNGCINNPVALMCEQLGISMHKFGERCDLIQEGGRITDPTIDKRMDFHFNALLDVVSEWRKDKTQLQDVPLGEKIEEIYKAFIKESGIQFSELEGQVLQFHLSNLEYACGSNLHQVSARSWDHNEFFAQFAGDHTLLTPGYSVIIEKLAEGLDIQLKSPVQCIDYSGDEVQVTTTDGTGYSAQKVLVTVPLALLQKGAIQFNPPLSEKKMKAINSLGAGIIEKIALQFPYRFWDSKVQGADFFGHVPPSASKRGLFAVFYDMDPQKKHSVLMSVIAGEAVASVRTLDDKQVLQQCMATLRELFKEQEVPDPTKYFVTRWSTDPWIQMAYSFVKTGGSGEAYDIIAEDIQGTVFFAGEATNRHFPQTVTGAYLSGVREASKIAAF
Description: Inhibition of KDM1B (unknown origin)

[5] = system: THP-1; test: Induction of cell death in human THP1 cells at 0.5 uM after 72 hrs by propidium iodide staining based flow cytometry; type: functional
[6] = system: THP-1; test: Anticlonogenic activity against human THP1 cells assessed as inhibition of colony formation at 0.5 uM after 13 days relative to control; type: functional; conditions: THP-1, 312 h
[7] = biological target: T1, LSD1/CoREST complex; test: Inhibition of recombinant human KDM1A/CoREST complex expressed in Escherichia coli using biotinylated H3K4me1 peptide as substrate preincubated for 10 mins with enzyme followed by substrate addition measured after 1 hr by TR-FRET HTS assay
[8] = biological target: T4, Amine oxidase [flavin-containing] B (Homo sapiens, UniProt P27338)
T4 sequence (P27338 whole entry): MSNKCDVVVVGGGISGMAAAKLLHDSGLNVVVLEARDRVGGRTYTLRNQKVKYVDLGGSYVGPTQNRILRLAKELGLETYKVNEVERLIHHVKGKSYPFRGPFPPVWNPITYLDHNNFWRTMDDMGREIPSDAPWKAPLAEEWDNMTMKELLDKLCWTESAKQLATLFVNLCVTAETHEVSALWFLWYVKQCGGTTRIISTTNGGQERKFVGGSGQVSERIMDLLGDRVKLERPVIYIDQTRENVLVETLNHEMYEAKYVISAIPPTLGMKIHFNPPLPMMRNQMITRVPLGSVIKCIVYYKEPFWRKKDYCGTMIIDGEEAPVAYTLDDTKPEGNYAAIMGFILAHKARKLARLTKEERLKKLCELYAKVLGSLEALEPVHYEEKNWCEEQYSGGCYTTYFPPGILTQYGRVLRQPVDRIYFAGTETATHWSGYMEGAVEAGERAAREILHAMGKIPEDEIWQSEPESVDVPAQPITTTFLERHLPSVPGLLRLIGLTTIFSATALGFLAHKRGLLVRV
Description: Inhibition of recombinant human MAOB incubated for 15 mins measured after 30 mins by luminescence-Glo assay

[9] = system: THP-1; test: Induction of cell death in human THP1 cells at 1 uM after 72 hrs by propidium iodide staining based flow cytometry; type: functional
[10] = system: THP-1; test: Anticlonogenic activity against human THP1 cells assessed as inhibition of colony formation at 5 uM after 13 days relative to control; type: functional; conditions: THP-1, 312 h
[11] = biological target: Lysine-specific histone demethylase 1A (Homo sapiens) (UniProt O60341); test: Inhibition of KDM1A in human THP1 cells assessed as increase in CD86 mRNA expression level at 5 uM after 24 hrs by qRT-PCR analysis relative to control; type: cell-based
[12] = system: THP-1; test: Induction of apoptosis in human THP1 cells at 1 uM after 72 hrs by Annexin V-propidium iodide staining based flow cytometry; type: functional, cell-based
[13] = biological target: Lysine-specific histone demethylase 1A (Homo sapiens) (UniProt O60341); test: Inhibition of KDM1A in human THP1 cells assessed as increase in CD11b mRNA expression level at 1 uM after 24 hrs by qRT-PCR analysis relative to control; type: cell-based
[14] = biological target: Lysine-specific histone demethylase 1A (Homo sapiens) (UniProt O60341); test: Inhibition of KDM1A in human THP1 cells assessed as increase in CD14 mRNA expression level at 1 uM after 24 hrs by qRT-PCR analysis relative to control; type: cell-based
[15] = biological target: T1, LSD1/CoREST complex; test: Competitive inhibition of recombinant human KDM1A/CoREST complex expressed in Escherichia coli using H3K4me1 peptide as substrate preincubated for 15 mins followed by substrate addition measured for 12 mins by Lineweaver-Burk plot analysis
[16] = biological target: T1, LSD1/CoREST complex; remark: listed apart in the source
Description: Inhibition of recombinant human KDM1A/CoREST complex expressed in Escherichia coli using H3K4me1 peptide as substrate preincubated for 15 mins with enzyme followed by substrate addition measured after 12 mins by Amplex Ultra Red reagent based HRP enzyme coupled assay

[17] = system: CC(=O)c1ccc(CN2CCC3(CCNCC3)C2)cc1; conditions: Homo sapiens
Description: Inhibition of recombinant human KDM1A/CoREST complex expressed in Escherichia coli assessed as Km for substrate using H3K4me1 peptide as substrate preincubated for 15 mins followed by substrate addition measured for 12 mins by Lineweaver-Burk plot analysis

| Compound | IC50 [1] [µM] | further results |
| --- | --- | --- |
| NCCn1c(C(=O)Nc2ccccc2)cc2sccc21 | 48.1 | – |
| O=C(Nc1ccccc1)c1ccc2sccc2c1 | > 100 | – |
| Cn1c(C(=O)Nc2ccncn2)cc2sccc21 | > 100 | – |
| NC1CCC(N[C@@H]2C[C@H]2c2ccccc2)CC1 (stereo partly drawn) | – | Activity [2]: inactive; IC50 [3]: 48.3 µM; IC50 [4]: 43.4 µM; Activity [5]: inactive; inhibition at 0.5 µM [6]: 70% |
| Cc1nc(-n2nc(-c3cccs3)cc2NC(=O)COc2ccccc2F)[nH]c(=O)c1C | – | IC50 [7]: 0.76 µM |
| Cn1c(C(=O)Nc2cccc(F)c2)cc2sccc21 | 22.2 | – |
| Cn1c(C(=O)Nc2cccnc2)cc2sccc21 | 61.5 | – |
| Cn1c(C(=O)Nc2cccc(OCc3ccncc3)c2)cc2sccc21 | 7.2 | – |
| CN1CCN(c2cccc(NC(=O)c3cc4sccc4n3C)c2)CC1 | 21.5 | – |
| Cn1c(C(=O)Nc2ccccc2)cc2ccsc21 | 38.8 | – |
| Cn1c(C(=O)Nc2cccc(CO)c2)cc2sccc21 | 52.3 | – |
| Cn1c(C(=O)Nc2ccccc2)cc2ncsc21 | > 100 | – |
| Cn1c(C(=O)Nc2ccccc2)cc2sc(F)cc21 | > 100 | – |
| O=C(Nc1ccccc1)c1cc2sccc2[nH]1 | > 100 | – |
| Cn1c(C(=O)Nc2ccccc2)c(Cl)c2sccc21 | > 100 | – |
| Cn1c(C(=O)Nc2ccccc2)cc2sc(I)cc21 | > 100 | – |
| COCc1cccc(NC(=O)c2cc3sccc3n2C)c1 | – | IC50 [8]: 56.8 µM; IC50 [3]: > 100 µM; IC50 [4]: > 100 µM |
| Cn1c(C(=O)Nc2ccccc2)cc2occc21 | 89.5 | – |
| Cn1c(C(=O)Nc2cccc(COc3ccc(O)cc3)c2)cc2sccc21 | 25.2 | – |
| CCCn1c(C(=O)Nc2ccccc2)cc2sccc21 | 53.2 | – |
| Cn1cnc2c1cc(C(=O)Nc1ccccc1)n2C | > 100 | – |

| Compound | IC50 [1] [µM] | further results |
| --- | --- | --- |
| Cc1cc2c(cc(C(=O)Nc3ccccc3)n2C)s1 | > 100 | – |
| O=C(Nc1ccccc1)c1cc2sccc2n1S(=O)(=O)c1ccccc1 | > 100 | – |
| Cn1c(C(=O)Nc2cccc(Cl)c2)cc2sccc21 | 18.7 | – |
| CN(C)Cc1cccc(NC(=O)c2cc3sccc3n2C)c1 | 16.7 | – |
| Cn1c(C(=O)Nc2ccccc2)c(I)c2sc(I)cc21 | > 100 | – |
| Cn1c(C(=O)Nc2cccc(Oc3ccncc3)c2)cc2sccc21 | 89.9 | – |
| CN1CCC(COc2cccc(NC(=O)c3cc4sccc4n3C)c2)CC1 | 2.2 | – |
| Cn1c(C(=O)Nc2cccc(Br)c2)cc2sccc21 | > 100 | – |
| Cn1c(C(=O)Nc2cccc(COc3ccc(OC4CCNCC4)cc3)c2)cc2sccc21 | 0.16 to 0.162 | Activity [9]: inactive; IC50 [8]: 7.16 µM; inhibition at 5 µM [10]: 29.5%; fold change (FC) [11]: 14.3; Activity [12]: inactive; IC50 [3]: > 100 µM; IC50 [4]: > 100 µM; fold change (FC) [13]: 4.61; fold change (FC) [14]: 4.79 |
| Cn1c(C(=O)Nc2ccccc2)nc2sccc21 | > 100 | – |
| Cn1c(C(=O)Nc2ccccc2)cc2sc(Br)cc21 | > 100 | – |
| CCn1c(C(=O)Nc2ccccc2)cc2sccc21 | 9.3 | – |
| CN(C)Cc1c(C(=O)Nc2ccccc2)n(C)c2ccsc12 | > 100 | – |
| CSCc1cccc(NC(=O)c2cc3sccc3n2C)c1 | 7.4 | – |
| Cn1ncc2cc(C(=O)Nc3ccccc3)n(C)c21 | > 100 | – |
| Cc1oc(-c2ccc(Cl)cc2[N+](=O)[O-])cc1C(=O)Nc1ccccc1 | – | IC50 [7]: 3.5 µM |
| CC(=O)c1ccc(CN2CCC3(CCNCC3)C2)cc1 | 8.1 | IC50 [8]: 42.5 µM; IC50 [3]: > 100 µM; Ki [15]: 48.4 µM; IC50 [7]: 5 µM; IC50 [16]: 82.4 µM |
| Cn1c(C(=O)Nc2cccc(COc3ccccc3)c2)cc2sccc21 | > 100 | – |
| Cn1ccc2c1cc(C(=O)Nc1ccccc1)n2C | > 100 | – |
| Cc1csc2cc(C(=O)Nc3ccccc3)n(C)c12 | > 100 | – |
| Cn1c(C(=O)Nc2ccccn2)cc2sccc21 | > 100 | – |

| Compound | IC50 [1] [µM] | further results |
| --- | --- | --- |
| COc1cccc(NC(=O)c2cc3sccc3n2C)c1 | 26.5 | – |
| Cn1c(C(=O)Nc2cccc(CN3CCOCC3)c2)cc2sccc21 | 11.1 | – |
| COCc1c(C(=O)Nc2ccccc2)n(C)c2ccsc12 | > 100 | – |
| CN(C)Cc1cc2c(cc(C(=O)Nc3ccccc3)n2C)s1 | > 100 | – |
| LSD1/CoREST complex (Homo sapiens) (from UniProt O60341+Q9UKL0) | – | Km [17]: 1.4 µM |
| Cc1c(C(=O)Nc2ccccc2)n(C)c2ccsc12 | > 100 | – |
| Cn1c(C(=O)Nc2ccccc2)cc2sccc21 | 25.7 | – |
| O=C(Nc1ccccc1)c1cc2sccc2s1 | > 100 | – |
| Cn1cnc2[nH]c(C(=O)Nc3ccccc3)cc21 | > 100 | – |
| Cn1c(C(=O)Nc2ccccc2)cc2scnc21 | > 100 | – |
| Cc1sc2cc(C(=O)Nc3ccccc3)n(C)c2c1C | > 100 | – |
| Cn1c(C(=O)Nc2ccncc2)cc2sccc21 | > 100 | – |
| CN(C)c1cccc(NC(=O)c2cc3sccc3n2C)c1 | 29.6 | – |
| Cn1c(C(=O)Nc2cccc(COc3ccncc3)c2)cc2sccc21 | 9.4 | – |
| Cn1c(C(=O)Nc2ncccn2)cc2sccc21 | > 100 | – |
| CN1CCC(Oc2ccc(OCc3cccc(NC(=O)c4cc5sccc5n4C)c3)cc2)CC1 | 0.44 to 0.442 | Activity [9]: inactive; IC50 [8]: 7.6 µM; Activity [12]: inactive; IC50 [3]: > 100 µM; IC50 [4]: > 100 µM; fold change (FC) [13]: 4.76; fold change (FC) [14]: 2.76 |
| Cn1c(C(=O)Nc2ccccc2)c(I)c2sccc21 | > 100 | – |
| O=C(Nc1ccccc1)c1cc2sccc2n1-c1ccccc1 | > 100 | – |
| Cn1c(C(=O)Nc2cccc(C(N)=O)c2)cc2sccc21 | 97.3 | – |
